Reference: patent publication US20200247800A1, “SUBSTITUTED BICYCLIC HETEROCYCLIC COMPOUNDS AS NADPH OXIDASE INHIBITORS” (Glenmark Pharmaceuticals S.A., priority 2017, published 2020)

Target: T1, human NOX4 (Homo sapiens, UniProt Q9NPH5)
T1 construct: expressed in transfected cells; membrane fraction used
T1 sequence (Q9NPH5 1-578): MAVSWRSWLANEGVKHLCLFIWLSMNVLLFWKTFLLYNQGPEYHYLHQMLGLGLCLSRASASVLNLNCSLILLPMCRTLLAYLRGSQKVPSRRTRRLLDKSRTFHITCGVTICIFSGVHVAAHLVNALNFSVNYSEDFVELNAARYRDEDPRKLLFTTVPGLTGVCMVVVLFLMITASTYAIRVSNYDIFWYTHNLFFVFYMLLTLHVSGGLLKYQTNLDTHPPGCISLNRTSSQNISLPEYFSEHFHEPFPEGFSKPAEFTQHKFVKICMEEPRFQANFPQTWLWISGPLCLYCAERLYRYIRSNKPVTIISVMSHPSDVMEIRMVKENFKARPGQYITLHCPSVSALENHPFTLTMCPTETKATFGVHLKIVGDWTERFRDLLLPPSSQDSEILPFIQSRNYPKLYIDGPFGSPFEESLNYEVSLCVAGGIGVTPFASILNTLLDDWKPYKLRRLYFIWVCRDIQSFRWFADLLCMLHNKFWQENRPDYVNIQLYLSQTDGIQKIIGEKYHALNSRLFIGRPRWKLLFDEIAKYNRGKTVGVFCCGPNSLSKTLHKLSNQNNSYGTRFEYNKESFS
T1 sequence (P13498 1-195 partner): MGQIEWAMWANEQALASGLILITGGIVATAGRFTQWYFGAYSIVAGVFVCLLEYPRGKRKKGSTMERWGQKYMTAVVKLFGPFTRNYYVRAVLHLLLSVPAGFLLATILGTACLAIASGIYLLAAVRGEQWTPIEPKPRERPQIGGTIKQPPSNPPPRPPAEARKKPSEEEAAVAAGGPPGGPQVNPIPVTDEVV
Assay: Cell free membrane based in vitro NOX4 assay: H2O2 production by membranes expressing human NOX4, measured with Amplex Red
Type: biochemical
Conditions: for inhibition at 1 µM: 1.0 μM compound, read-out: Percentage inhibition at 1.0 μM; for inhibition at 10 µM: 10.0 μM compound, read-out: Percentage inhibition at 10.0 μM; for IC50: class symbols
In short: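 Membranes from HEK cells stably overexpressing human NOX4 were preincubated 20 min with inhibitor in pH 7.4 HEPES buffer containing HRP and Amplex Red, then NADPH was added. H2O2 was followed for 10 min by fluorescence (ex 544/em 590 nm). IC50 from nonlinear regression of % maximal uninhibited response.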

Row | Structure (SMILES) | inhibition at 1 µM [%] | inhibition at 10 µM [%] | IC50 [nM]
1 | Cc1nn(C2CCOCC2)c2[nH]c(-c3c(F)cccc3F)c(O)c(=O)c12 [Example 128, 6-(2,6-Difluorophenyl)-5-hydroxy-3-methyl-1-(tetrahydro-2H-pyran-4-yl)-1,7-dihydro-4H-pyrazolo[3,4-b]pyridin-4-one] | 88.1 | 92.1 | 50 to 100
2 | CCn1nc(C)c2c(=O)c(O)c(-c3cc(CNC(=O)C(C)(C)C)ccc3Cl)[nH]c21 [Example 129, N-(4-Chloro-3-(1-ethyl-5-hydroxy-3-methyl-4-oxo-4,7-dihydro-1H-pyrazolo[3,4-b]pyridin-6-yl)benzyl)pivalamide] | 85.1 | 74.4 | 50 to 100
3 | O=c1c(O)c(-c2ccccc2Cl)[nH]c2c1c(C(F)(F)F)nn2C1CCOCC1 [Example 130, 6-(2-Chlorophenyl)-5-hydroxy-1-(tetrahydro-2H-pyran-4-yl)-3-(trifluoromethyl)-1H-pyrazolo[3,4-b]pyridin-4(7H)-one] | 69.6 | 98.5 | > 150
4 | Cc1nn(C2CCC2)c2[nH]c(-c3c(F)cccc3F)c(O)c(=O)c12 [Example 131, 1-Cyclobutyl-6-(2,6-difluorophenyl)-5-hydroxy-3-methyl-1H-pyrazolo[3,4-b]pyridin-4(7H)-one] | 92.4 | 90.2 | < 50
5 | Cn1nc(C(F)(F)F)c2c(=O)c(O)c(-c3cc(CNC(=O)C(C)(C)C)ccc3Cl)[nH]c21 [Example 132, N-(4-Chloro-3-(5-hydroxy-1-methyl-4-oxo-3-(trifluoromethyl)-4,7-dihydro-1H-pyrazolo[3,4-b]pyridin-6-yl)benzyl)pivalamide] | 74.8 | 88.7 | > 150
6 | Cc1nn(C2CC2)c2[nH]c(-c3cc(CNC(=O)C(C)(C)C)ccc3Cl)c(O)c(=O)c12 [Example 133, N-(4-Chloro-3-(1-cyclopropyl-5-hydroxy-3-methyl-4-oxo-4,7-dihydro-1H-pyrazolo[3,4-b]pyridin-6-yl)benzyl)pivalamide] | 77.3 | 88.8 | > 150
7 | O=c1c(O)c(-c2c(F)cccc2F)[nH]c2c1c(C(F)(F)F)nn2C1CCOCC1 [Example 134, 6-(2,6-Difluorophenyl)-5-hydroxy-1-(tetrahydro-2H-pyran-4-yl)-3-(trifluoromethyl)-1,7-dihydro-4H-pyrazolo[3,4-b]pyridin-4-one] | 57.1 | 88.2 | > 150
8 | Cn1nc(C(F)(F)F)c2c(=O)c(O)c(-c3cc(CNC(=O)C(C)(C)C)ccc3F)[nH]c21 [Example 135, N-(4-Fluoro-3-(5-hydroxy-1-methyl-4-oxo-3-(trifluoromethyl)-4,7-dihydro-1H-pyrazolo[3,4-b]pyridin-6-yl)benzyl)pivalamide] | 71 | 90.7 | > 150
9 | Cc1nn(C2CCCCC2)c2[nH]c(-c3c(F)cccc3F)c(O)c(=O)c12 [Example 136, 1-Cyclohexyl-6-(2,6-difluorophenyl)-5-hydroxy-3-methyl-1,7-dihydro-4H-pyrazolo[3,4-b]pyridin-4-one] | 85 | 87.5 | < 50
10 | Cc1nn(C2CCC(F)(F)CC2)c2[nH]c(-c3c(F)cccc3F)c(O)c(=O)c12 [Example 137, 1-(4,4-Difluorocyclohexyl)-6-(2,6-difluorophenyl)-5-hydroxy-3-methyl-1H-pyrazolo[3,4-b]pyridin-4(7H)-one] | 89.5 | 86.3 | 50 to 100
11 | CCn1nc(C)c2c(=O)c(O)c(-c3cc(CNC(=O)C(C)(C)C)ccc3F)[nH]c21 [Example 138, N-(3-(1-Ethyl-5-hydroxy-3-methyl-4-oxo-4,7-dihydro-1H-pyrazolo[3,4-b]pyridin-6-yl)-4-fluorobenzyl)pivalamide] | 92.6 | 85 | > 150
12 | Cc1nn(-c2ccc(F)cc2Cl)c2[nH]c(-c3c(F)cccc3F)c(O)c(=O)c12 [Example 139, 1-(2-Chloro-4-fluorophenyl)-6-(2,6-difluorophenyl)-5-hydroxy-3-methyl-1H-pyrazolo[3,4-b]pyridin-4(7H)-one] | 99 | 100 | 50 to 100
13 | CCc1nn(C2CC2)c2[nH]c(-c3c(F)cccc3F)c(O)c(=O)c12 [Example 140, 1-Cyclopropyl-6-(2,6-difluorophenyl)-3-ethyl-5-hydroxy-1H-pyrazolo[3,4-b]pyridin-4(7H)-one] | 100 | 100 | 50 to 100
14 | Cc1nn(-c2ccc(F)cc2Cl)c2[nH]c(-c3ccccc3Cl)c(O)c(=O)c12 [Example 141, 1-(2-Chloro-4-fluorophenyl)-6-(2-chlorophenyl)-5-hydroxy-3-methyl-1H-pyrazolo[3,4-b]pyridin-4(7H)-one] | 77.9 | 95.1 | > 150
15 | Cc1nn(C2CCOCC2)c2[nH]c(-c3cc(CNC(=O)C(C)(C)C)ccc3Cl)c(O)c(=O)c12 [Example 142, N-(4-Chloro-3-(5-hydroxy-3-methyl-4-oxo-1-(tetrahydro-2H-pyran-4-yl)-4,7-dihydro-1H-pyrazolo[3,4-b]pyridin-6-yl)benzyl)pivalamide] | 80.4 | 69.9 | > 150
16 | CCn1nc(C)c2c(=O)c(O)c(-c3ccccc3C(F)(F)F)[nH]c21 [Example 143, 1-Ethyl-5-hydroxy-3-methyl-6-(2-(trifluoromethyl)phenyl)-1H-pyrazolo[3,4-b]pyridin-4(7H)-one] | 73.1 |  | 100 to 150
17 | Cc1nn(C2CCC2)c2[nH]c(-c3ccccc3Cl)c(O)c(=O)c12 [Example 144, 6-(2-Chlorophenyl)-1-cyclobutyl-5-hydroxy-3-methyl-1H-pyrazolo[3,4-b]pyridin-4(7H)-one] | 83.6 | 63.8 | 50 to 100
18 | Cn1nc(Cc2ccccc2Cl)c2c(=O)c(O)c(-c3ccccc3Cl)[nH]c21 [Example 145, 3-(2-Chlorobenzyl)-6-(2-chlorophenyl)-5-hydroxy-1-methyl-1H-pyrazolo[3,4-b]pyridin-4(7H)-one] | 90 | 93.2 | > 150
19 | CCc1nn(CCN2CCOCC2)c2[nH]c(-c3ccccc3Cl)c(O)c(=O)c12 [Example 146, 6-(2-Chlorophenyl)-3-ethyl-5-hydroxy-1-(2-morpholinoethyl)-1H-pyrazolo[3,4-b]pyridin-4(7H)-one] | 94 | 81.8 | 100 to 150
20 | Cc1nn(CCCN2CCOCC2)c2[nH]c(-c3ccccc3Cl)c(O)c(=O)c12 [Example 147, 6-(2-Chlorophenyl)-5-hydroxy-3-methyl-1-(3-morpholinopropyl)-1H-pyrazolo[3,4-b]pyridin-4(7H)-one] | 94.3 | 64.9 | 100 to 150
21 | Cc1nn(CCN2C[C@@H](C)O[C@@H](C)C2)c2[nH]c(-c3ccccc3Cl)c(O)c(=O)c12 [Example 148, 6-(2-Chlorophenyl)-1-(2-((2S,6R)-2,6-dimethylmorpholino)ethyl)-5-hydroxy-3-methyl-1H-pyrazolo[3,4-b]pyridin-4(7H)-one] | 94.3 | 85.3 | > 150
22 | Cc1nn(CCN2CCCCC2)c2[nH]c(-c3ccccc3Cl)c(O)c(=O)c12 [Example 149, 6-(2-Chlorophenyl)-5-hydroxy-3-methyl-1-(2-(piperidin-1-yl)ethyl)-1H-pyrazolo[3,4-b]pyridin-4(7H)-one] | 79.1 | 74.7 | > 150
23 | O=c1c(O)c(-c2ccccc2Cl)[nH]c2c1c(C(F)(F)F)nn2CCN1CCOCC1 [Example 150, 6-(2-Chlorophenyl)-5-hydroxy-1-(2-morpholinoethyl)-3-(trifluoromethyl)-1H-pyrazolo[3,4-b]pyridin-4(7H)-one] | 67.1 | 84.4 | > 150
24 | Cc1nn(CCN2CCCC2)c2[nH]c(-c3ccccc3Cl)c(O)c(=O)c12 [Example 151, 6-(2-Chlorophenyl)-5-hydroxy-3-methyl-1-(2-(pyrrolidin-1-yl)ethyl)-1H-pyrazolo[3,4-b]pyridin-4(7H)-one] | 81.1 | 76.2 | > 150
25 | Cc1nn(CCN2CCOCC2)c2[nH]c(-c3ccccc3C(F)(F)F)c(O)c(=O)c12 [Example 152, 5-Hydroxy-3-methyl-1-(2-morpholinoethyl)-6-(2-(trifluoromethyl)phenyl)-1H-pyrazolo[3,4-b]pyridin-4(7H)-one] | 93.5 | 89.9 | 100 to 150
